In US5672710A, “Sulfides, sulfoxides and sulfones disubstituted with a tetrahydronaphthalenyl, chromanyl, thiochromanyl or tetrahydroquinolinyl and substituted phenyl or heteroaryl group, having retinoid-like biological activity” (priority 1995, dated 1997):

Experiments:
[1] = target: T1, RXRα (Homo sapiens, UniProt P19793); test: Ligand binding assay, RXRα
T1 construct: expressed in transfected cells; host or cells: CV1
T1 sequence (P19793 1-462): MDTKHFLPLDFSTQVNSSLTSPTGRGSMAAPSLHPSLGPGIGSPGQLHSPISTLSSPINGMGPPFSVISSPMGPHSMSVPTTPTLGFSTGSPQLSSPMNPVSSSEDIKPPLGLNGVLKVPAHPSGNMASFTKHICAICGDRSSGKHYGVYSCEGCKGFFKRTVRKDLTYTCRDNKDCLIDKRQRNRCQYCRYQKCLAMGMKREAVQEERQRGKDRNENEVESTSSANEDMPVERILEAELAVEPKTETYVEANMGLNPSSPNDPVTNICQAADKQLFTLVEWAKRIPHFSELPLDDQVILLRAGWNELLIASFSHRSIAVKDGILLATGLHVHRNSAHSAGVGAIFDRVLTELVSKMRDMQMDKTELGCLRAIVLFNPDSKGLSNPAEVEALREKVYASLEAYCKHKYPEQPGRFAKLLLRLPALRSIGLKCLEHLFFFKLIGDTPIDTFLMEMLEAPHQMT
Description: (§1) A holoreceptor transactivation assay and a ligand binding assay which measure the ability of the compounds of the invention to bind to the several retinoid receptor subtypes, respectively, are described in published PCT Application No. WO W093/11755 (particularly on pages 30-33 and 37-41) published on Jun. 24, 1993, the specification of which is also incorporated herein by reference. A description of the holoreceptor transactivation assay is also provided below.
(§2) CV1 cells (5,000 cells/well) were transfected with an RAR reporter plasmid MTV-TREp-LUC (50 ng) along with one of the […] expression vectors (10 ng) in an automated 96-well format by the calcium phosphate procedure of Heyman et al. Cell 68, 397-406. (8). For RXRα and RXR.GAMMA. transactivation assays, an RXR-responsive reporter plasmid CRBPII-tk-LUC (50 ng) along with the appropriate RXRexpression vectors (10 ng) was used substantially as described by Heyman et al. above, and Allegretto et al. J. Biol. Chem. 268, 26625-26633. For RXRβ transactivation assays, an RXR-responsive reporter plasmid CPRE-tk-LUC ([…]) along with RXRβ expression vector ([…]) was used as described in above. These reporters contain DRI elements from human CRBPII and certain DRI elements from promoter, respectively. (see Mangelsdorf et al. The Retinoids: Biology, Chemistry and Medicine, pp 319-349, Raven Press Ltd., New York and Heyman et al., cited above) (1, 8). A β-galactosidase (50 ng) expression vector was used as an internal control in the transfections to normalize for variations in transfection efficiency. The cells were transfected in triplicate for 6 hours, followed by incubation with retinoids for 36 hours, and the extracts were assayed for luciferase and β-galactosidase activities. The detailed experimental procedure for holoreceptor transactivations has been described in Heyman et al. above, and Allegretto et al. cited above. The results obtained in this assay in connection with examplary compounds in accordance with the present invention are expressed in EC50 numbers, as they are also in the chimeric receptor transactivation assay. The Heyman et al. Cell 68, 397-406, Allegretto et al. J. Biol. Chem. 268, 26625-26633, and Mangelsdorf et al. The Retinoids: Biology, Chemistry and Medicine, pp 319-349, Raven Press Ltd., New York, are expressly incorporated herein by reference. The results of ligand binding assay are expressed in Kd numbers. (See Cheng et al. Biochemical Pharmacology Vol. 22 pp 3099-3108, expressly incorporated herein by reference.)

[2] = target: T1, RXRα; test: Holoreceptor transactivation assay, RXRα; type: cell-based; conditions: CV1 cells; for EC50: 36 hours; for Emax: CV-1, relative to all trans retinoic acid, read-out: Transactivation Assay Efficacy (% of RA activity), RXRα
Description: as §1, §2

[3] = target: T2, RXRγ (Mus musculus, UniProt P28705); test: Ligand binding assay, RXRγ
T2 construct: expressed in transfected cells; host or cells: CV1
T2 sequence (P28705 1-463): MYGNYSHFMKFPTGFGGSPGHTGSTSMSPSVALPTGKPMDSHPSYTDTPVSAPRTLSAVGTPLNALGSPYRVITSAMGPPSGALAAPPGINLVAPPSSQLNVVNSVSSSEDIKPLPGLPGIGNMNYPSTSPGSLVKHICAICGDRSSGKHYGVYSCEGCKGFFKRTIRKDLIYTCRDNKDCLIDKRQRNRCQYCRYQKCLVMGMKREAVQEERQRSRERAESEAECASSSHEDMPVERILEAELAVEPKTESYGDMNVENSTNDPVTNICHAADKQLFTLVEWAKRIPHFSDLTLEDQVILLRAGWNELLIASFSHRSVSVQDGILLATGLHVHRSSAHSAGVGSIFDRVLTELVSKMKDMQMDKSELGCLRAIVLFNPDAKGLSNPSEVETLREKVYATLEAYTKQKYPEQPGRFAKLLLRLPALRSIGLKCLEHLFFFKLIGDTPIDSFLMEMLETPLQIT
Description: as §1, §2

[4] = target: T3, RARβ (Homo sapiens, UniProt P10826); test: Ligand binding assay, RARβ
T3 construct: expressed in transfected cells; host or cells: CV1
T3 sequence (P10826 1-448 isoform P10826-2): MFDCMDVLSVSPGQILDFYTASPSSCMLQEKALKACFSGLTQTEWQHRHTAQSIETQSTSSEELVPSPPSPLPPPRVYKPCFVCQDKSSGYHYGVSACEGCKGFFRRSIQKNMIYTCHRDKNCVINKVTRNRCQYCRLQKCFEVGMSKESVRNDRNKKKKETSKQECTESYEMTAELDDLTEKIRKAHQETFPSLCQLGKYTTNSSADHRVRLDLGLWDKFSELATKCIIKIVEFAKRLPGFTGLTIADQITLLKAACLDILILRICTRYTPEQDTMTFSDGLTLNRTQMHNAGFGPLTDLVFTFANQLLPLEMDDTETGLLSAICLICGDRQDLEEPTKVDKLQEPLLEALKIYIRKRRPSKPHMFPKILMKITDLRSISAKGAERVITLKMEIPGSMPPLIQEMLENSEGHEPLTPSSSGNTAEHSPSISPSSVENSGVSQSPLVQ
Description: as §1, §2

Row | Kd [1] | EC50 [2] | Emax [2] | Kd [3] | Kd [4] | Structure (SMILES)
1 | 0.032 µM | 0.054 µM | 91% | 0.073 µM | > 10 µM | Cc1cc2c(cc1Sc1ccc(C(=O)O)cn1)C(C)(C)CCC2(C)C [Compound 13]
2 | > 1 µM | 2.8 µM | 55% | > 1 µM | > 1 µM | Cc1cc2c(cc1S(=O)(=O)c1ccc(C(=O)O)cc1)C(C)(C)CCC2(C)C [Compound 11, 4-(5,6,7,8-tetrahydro-3,5,5,8,8-pentamethyl-2-naphthylsulfonyl)benzoic acid]
3 | > 1 µM | 2.3 µM | 85% | > 1 µM | > 1 µM | Cc1cc2c(cc1Sc1ncc(C(=O)O)s1)C(C)(C)CCC2(C)C [Compound 15, 2-(5,6,7,8-Tetrahydro-3,5,5,8,8-pentamethyl-2-naphthylthio)-5-thiazolecarboxylic acid]

The next lines start with the molecule.

Row | Structure (SMILES) | Kd [1] | EC50 [2] | Emax [2] | Kd [3] | Kd [4]
4 | Cc1cc2c(cc1Sc1ccc(C(=O)O)cc1)C(C)(C)CCC2(C)C [Compound 7, 4-(5,6,7,8-tetrahydro-3,5,5,8,8-pentamethyl-2-Daphthylthio)benzoic acid] | 0.296 µM | 0.28 µM | 81% | 0.304 µM | > 1 µM
5 | CC1(C)CCC(C)(C)c2cc(S(=O)(=O)c3ccc(C(=O)O)cc3)ccc21 [Compound 5, 4-(5,6,7,8-tetrahydro-5,5,8,8-tetramethyl-2-naphthylsulfonyl)benzoic acid] | > 1 µM | 3 µM | 32% | > 1 µM | > 1 µM
6 | CC1(C)CCC(C)(C)c2cc(Sc3ccc(C(=O)O)cc3)ccc21 [Compound 2] | > 1 µM | – | 51% | – | > 1 µM
7 | Cc1cc2c(cc1[S+]([O-])c1ccc(C(=O)O)cc1)C(C)(C)CCC2(C)C (centres unmarked) [Compound 9, 4-(5,6,7,8-tetrahydro-3,5,5,8,8-pentamethyl-2-naphthylsulfoxy)benzoic acid] | > 1 µM | – | 17% | > 1 µM | > 1 µM
